For ten molecules, T/C results are on record in PubChem BioAssay AID220 (DTP/NCI, 2004).

“And” between values parts separate entries of the source, which are not always exact repeats. Identical values can stand only once. Inconclusive results are not listed.

The test system of this assay is CD8F1 mice, subcutaneous mammary adenocarcinoma, T/C%. Briefly: NCI In Vivo Anticancer Drug Screen. Data for tumor model Mammary Adenocarcinoma CD8F1 (subcutaneous) in CD8F1. The settings on record: higher = larger tumour. The method in brief:
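Ratio of treated to vehicle-control outcome, based on either survival or tumor size, in mice bearing transplantable tumors given the test compound.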

[1] abbreviates: endpoint: median tumor weight (est.), dose: 25.0 mg/kg/injection, schedule: Q07DX005 (ip), vehicle: saline with Tween-80.
[2] abbreviates: endpoint: median tumor weight (est.), dose: 50.0 mg/kg/injection, schedule: Q07DX005 (ip), vehicle: saline with Tween-80.
Setting [3] is: endpoint: median tumor weight (est.), dose: 100.0 mg/kg/injection, schedule: Q07DX005 (ip), vehicle: saline with Tween-80.
The mark [4] stands for this setting: endpoint: median tumor weight (est.), dose: 200.0 mg/kg/injection, schedule: Q07DX005 (ip), vehicle: saline with Tween-80.
Where [5] appears, read: endpoint: median tumor weight (est.), dose: 25.0 mg/kg/injection, schedule: Q07DX005 (ip), vehicle: saline.
Setting [6] is: endpoint: median tumor weight (est.), dose: 50.0 mg/kg/injection, schedule: Q07DX005 (ip), vehicle: saline.
Where [7] appears, read: endpoint: median tumor weight (est.), dose: 100.0 mg/kg/injection, schedule: Q07DX005 (ip), vehicle: saline.
Where [8] appears, read: endpoint: median tumor weight (est.), dose: 200.0 mg/kg/injection, schedule: Q07DX005 (ip), vehicle: saline.

In the case of `BrC[P+](CBr)(CBr)CBr`, the T/C (endpoint: median tumor weight change, dose: 125.0 mg/kg/injection, schedule: Q01DX001 (ip), vehicle: saline with Tween-80) is 124 % of control and the T/C (endpoint: median tumor weight change, dose: 250.0 mg/kg/injection, schedule: Q01DX001 (ip), vehicle: saline with Tween-80) is 152 % of control.
For `COC(=O)Nc1nc2ccc(C3(c4ccc(F)cc4)OCCO3)cc2[nH]1`, the T/C was 99 % of control (endpoint: median tumor weight change, dose: 125.0 mg/kg/injection, schedule: Q01DX001 (ip), vehicle: saline); 152 % of control (endpoint: median tumor weight change, dose: 125.0 mg/kg/injection, schedule: Q01DX001 (ip), vehicle: suspension in saline); 67 % of control (endpoint: median tumor weight change, dose: 250.0 mg/kg/injection, schedule: Q01DX001 (ip), vehicle: suspension in saline); 153 % of control (endpoint: median tumor weight change, dose: 500.0 mg/kg/injection, schedule: Q01DX001 (ip), vehicle: suspension in saline); 93 % of control (endpoint: median tumor weight change, dose: 1000.0 mg/kg/injection, schedule: Q01DX001 (ip), vehicle: suspension in saline).
For the molecule `CCCCc1ccc2nc(NC(=O)OC)[nH]c2c1`, the T/C is 196 % of control (endpoint: mean tumor weight, dose: 12.5 mg/kg/injection, schedule: Q07DX006 (ip), vehicle: saline with Tween-80); 120 % of control (endpoint: mean tumor weight, dose: 100.0 mg/kg/injection, schedule: Q07DX006 (ip), vehicle: saline with Tween-80); 161 % of control (endpoint: mean tumor weight, dose: 200.0 mg/kg/injection, schedule: Q07DX006 (ip), vehicle: saline with Tween-80); 67 % of control (endpoint: mean tumor weight, dose: 400.0 mg/kg/injection, schedule: Q07DX006 (ip), vehicle: saline with Tween-80); 55 % of control (endpoint: median tumor weight (est.), dose: 12.5 mg/kg/injection, schedule: Q07DX005 (ip), vehicle: saline with Tween-80); 61 % of control under setting [1]. Besides, the T/C was 122 % of control under setting [2], 84 % of control under setting [3] and 49 % of control under setting [4].
Regarding `CN(C)c1nc(N(C)C)nc(N(C)C)n1`, the T/C was 64 % of control (endpoint: mean tumor weight, dose: 75.0 mg/kg/injection, schedule: Q01DX009 (ip), vehicle: saline); 94 % of control (endpoint: mean tumor weight, dose: 150.0 mg/kg/injection, schedule: Q01DX009 (ip), vehicle: saline); 108 % of control (endpoint: mean tumor weight, dose: 250.0 mg/kg/injection, schedule: Q07DX006 (ip), vehicle: saline); 8 % of control (endpoint: mean tumor weight, dose: 300.0 mg/kg/injection, schedule: Q01DX009 (ip), vehicle: saline); 113 % of control (endpoint: mean tumor weight, dose: 300.0 mg/kg/injection, schedule: Q07DX006 (ip), vehicle: saline); 100 % of control (endpoint: median tumor weight (est.), dose: 12.5 mg/kg/injection, schedule: Q07DX006 (ip), vehicle: saline with Tween-80). In addition, the T/C by setting is: (endpoint: median tumor weight (est.), dose: 16.0 mg/kg/injection, schedule: Q07DX005 (ip), vehicle: saline with Tween-80) 171 % of control; under setting [1], 80 % of control; (endpoint: median tumor weight (est.), dose: 25.0 mg/kg/injection, schedule: Q07DX006 (ip), vehicle: saline with Tween-80) 54 % of control; (endpoint: median tumor weight (est.), dose: 32.0 mg/kg/injection, schedule: Q07DX005 (ip), vehicle: acid diluted with saline) 31 % of control; (endpoint: median tumor weight (est.), dose: 32.0 mg/kg/injection, schedule: Q07DX005 (ip), vehicle: saline with Tween-80) 179 % of control; under setting [2], 73 % of control. Moreover, the T/C is 50 % of control (endpoint: median tumor weight (est.), dose: 50.0 mg/kg/injection, schedule: Q07DX006 (ip), vehicle: saline with Tween-80); 39 % of control (endpoint: median tumor weight (est.), dose: 64.0 mg/kg/injection, schedule: Q07DX005 (ip), vehicle: acid diluted with saline); 212 % of control and 76 % of control (endpoint: median tumor weight (est.), dose: 64.0 mg/kg/injection, schedule: Q07DX005 (ip), vehicle: saline with Tween-80); 62 % of control under setting [3]; 78 % of control (endpoint: median tumor weight (est.), dose: 100.0 mg/kg/injection, schedule: Q07DX006 (ip), vehicle: saline with Tween-80); 53 % of control (endpoint: median tumor weight (est.), dose: 128.0 mg/kg/injection, schedule: Q07DX005 (ip), vehicle: acid diluted with saline). The T/C is, setting by setting: under setting [4], 44 % of control; (endpoint: median tumor weight (est.), dose: 200.0 mg/kg/injection, schedule: Q07DX006 (ip), vehicle: saline with Tween-80) 5 % of control; (endpoint: median tumor weight (est.), dose: 256.0 mg/kg/injection, schedule: Q07DX005 (ip), vehicle: acid diluted with saline) 29 % of control; (endpoint: median tumor weight change, dose: 100.0 mg/kg/injection, schedule: Q01DX001 (ip), vehicle: acid diluted with saline) 103 % of control and 104 % of control; (endpoint: median tumor weight change, dose: 200.0 mg/kg/injection, schedule: Q01DX001 (ip), vehicle: acid diluted with saline) 61 % of control; (endpoint: median tumor weight change, dose: 800.0 mg/kg/injection, schedule: Q01DX001 (ip), vehicle: acid diluted with saline) 37 % of control and 51 % of control.
On to `Cl`, for which the T/C by setting is: under setting [5], 93 % of control; under setting [6], 91 % of control; under setting [7], 67 % of control; under setting [8], 93 % of control; (endpoint: median tumor weight (est.), dose: 400.0 mg/kg/injection, schedule: Q07DX005 (ip), vehicle: saline) 48 % of control.
On to `Cc1cc(NCCCN(C)C)c2ccc3c(ccc4c(NCCCN(C)C)cc(C)nc43)c2n1`, for which the T/C is 87 % of control (endpoint: median tumor weight change, dose: 3.9 mg/kg/injection, schedule: Q01DX001 (ip), vehicle: saline) and 98 % of control (endpoint: median tumor weight change, dose: 7.81 mg/kg/injection, schedule: Q01DX001 (ip), vehicle: saline).
Consider `Nc1nc(-c2cccc3ccccc23)cc2ccccc12`, for which the T/C by setting is: under setting [2], 53 % of control; under setting [3], 81 % of control; under setting [4], 37 % of control.
In the case of `COc1ccc(/C=C/C(=O)c2cc(C(=O)O)c(OC)cc2OC)cc1OC`, the T/C reads like this: (endpoint: median tumor weight (est.), dose: 12.5 mg/kg/injection, schedule: Q07DX005 (ip), vehicle: saline) 326 % of control; under setting [5], 117 % of control; under setting [6], 192 % of control; (endpoint: median tumor weight (est.), dose: 50.0 mg/kg/injection, schedule: Q07DX005 (ip), vehicle: suspension in saline) 85 % of control; under setting [7], 84 % of control; (endpoint: median tumor weight (est.), dose: 100.0 mg/kg/injection, schedule: Q07DX005 (ip), vehicle: suspension in saline) 107 % of control. Besides, the T/C runs as follows: under setting [8], 42 % of control; (endpoint: median tumor weight (est.), dose: 200.0 mg/kg/injection, schedule: Q07DX005 (ip), vehicle: suspension in saline) 53 % of control.
Regarding `CC(=O)NC(Cc1ccc(F)cc1)C(=O)O` (stereo not given), the T/C runs as follows: under setting [2], 117 % of control; under setting [3], 80 % of control; under setting [4], 68 % of control; (endpoint: median tumor weight (est.), dose: 800.0 mg/kg/injection, schedule: Q07DX005 (ip), vehicle: saline with Tween-80) 153 % of control.
For the molecule `CC1(C)CC23C4COC(=O)C2CCC1C3CC4=O` (stereo not given), the T/C reads like this: (endpoint: median tumor weight (est.), dose: 18.0 mg/kg/injection, schedule: Q07DX005 (ip), vehicle: DMSO) 72 % of control; (endpoint: median tumor weight (est.), dose: 18.0 mg/kg/injection, schedule: Q07DX005 (ip), vehicle: Klucel (hydroxypropylcellulose) (HPC)) 98 % of control; (endpoint: median tumor weight (est.), dose: 36.0 mg/kg/injection, schedule: Q07DX005 (ip), vehicle: DMSO) 79 % of control; (endpoint: median tumor weight (est.), dose: 36.0 mg/kg/injection, schedule: Q07DX005 (ip), vehicle: Klucel (hydroxypropylcellulose) (HPC)) 89 % of control; (endpoint: median tumor weight (est.), dose: 72.0 mg/kg/injection, schedule: Q07DX005 (ip), vehicle: Klucel (hydroxypropylcellulose) (HPC)) 97 % of control; (endpoint: median tumor weight (est.), dose: 144.0 mg/kg/injection, schedule: Q07DX005 (ip), vehicle: Klucel (hydroxypropylcellulose) (HPC)) 71 % of control. Further, the T/C was 87 % of control (endpoint: median tumor weight (est.), dose: 288.0 mg/kg/injection, schedule: Q07DX005 (ip), vehicle: DMSO) and 66 % of control (endpoint: median tumor weight (est.), dose: 288.0 mg/kg/injection, schedule: Q07DX005 (ip), vehicle: Klucel (hydroxypropylcellulose) (HPC)).
